Results as given in patent US20220160812A1, “A PHARMACEUTICALLY ACTIVE SUBSTANCE” (Cytopharma GmbH, priority 2019, published 2022).
“Also recorded” adds a separate entry of the source. Non-standard residues stand in square brackets, D forms with d. Residues, ends and D or L forms follow the SMILES beside them.

What was measured:
[1] = tested on: human peripheral blood mononuclear cells (Lymphocyte, PBMC); experiment: cell vitality FACS analysis (region R-1), healthy lymphocytes (PBMC); format: cell-based; settings: Protocol A, 50, 100, 200 μM, about 24 hours per Examples (FIG. 11 legend: about 2 hours)
Description: Human lymphocytes are obtained as peripheral blood mononuclear cells (“PBMC”) from whole blood. For this purpose, 15 ml of heparinized whole blood (heparin tube, Sarstedt) were layered on 15 ml Biocoll in LeucoSep tubes and obtained by centrifugation (10 min at 120 g) as the top layer (“lymphocytes”) and so separated from other cells. For induction with peptides, 1×10^6 lymphocytes are seeded into each well of the 48-well plates.
After addition of the peptides diluted in culture medium to the cells (MEC-1 or lymphocytes) in the respective cavity, the cells are cultured for 2 to 4 hours at 37 degrees Celsius and 5% CO2. The cell suspension is centrifuged in centrifuge tubes at 120 g, the cells are suspended in 500 μl serum-free culture medium, then 1.5 ml of cold 80% ethanol (ethanol/PBS-80/20, v/v; stored at −20 degrees Celsius) is added, the FACS tubes sealed and stored at −20 degrees Celsius for a maximum of 18 h. The cells are centrifuged for 5 min at 120 g and suspended in 2 ml PBS, then incubated for 30 min at 37 degrees Celsius. After renewed centrifugation, the cells are suspended in 0.5 ml DAPI solution and incubated for 15 min at 20 degrees Celsius in the dark. Thereafter, the cells are stored dark for a maximum of four hours in an ice bath, then the FACS analysis.
(§1) To transfer adherent cells (A375 and BxPC-3 cells) after culture, cells are washed twice with PBS. To detach the cells, the enzyme biotase is used according to the manufacturer's instructions. For this purpose, after washing with PBS, the cells are mixed with biotase (5 ml of biotase solution per 75 cm^2 surface of the cell culture bottles) and incubated for 5 min at 37 degrees Celsius, and the biotase is separated by centrifugation. Cells cultivated in suspension (MEC-1 and lymphocytes) were transferred by dilution. The cells are suspended in culture medium and counted, each time 1.5×10^5 cells/cm^2 are seeded in 48-well plates and cultured for between 1.5 and 24 hours at 37 degrees Celsius, 5% CO2. Peptides are pre-diluted from stock solution with culture medium and 200 μl of peptide solution added so that final concentrations of 30 to 500 μM peptide are present in at most 1% (v/v) DMSO. As control solutions, culture medium without peptide (DMSO-containing) in culture medium or etoposide solution is added. After incubating the cells for several hours, the cell supernatant is transferred to a FACS tube for each batch and, after washing the cells with PBS, the wash solution is added. Then the cells are incubated with 200 μl of biotase solution for 10 min, 37° C., the cells with the biotase are also transferred to the FACS tube and the cells are collected by centrifugation for 5 min. The cell pellet is suspended in 500 μl of serum-free culture medium, then 1.5 ml of cold 80% ethanol (ethanol/PBS-80/20, v/v, stored at −20° C.) is added, the FACS tubes sealed and stored at −20 degrees Celsius for 15 to 18 h. Thereafter, the cells are centrifuged for 5 minutes at 120 g, suspended after removal of the supernatant in 2 ml PBS and incubated at 37 degrees Celsius for 30 minutes. After re-centrifugation, the cells are suspended in 0.5 ml DAPI solution and incubated for 15 min at 20 degrees Celsius in the dark. Thereafter, the cells are stored dark for a maximum of four hours in an ice bath, followed by the FACS analysis.
Changes of the cell form during cell death by apoptosis are documented in the literature (Lizard et al. 1995; Taga et al. 2000; Vermes et al., 2000). The protocols for cell cultivation, treatment and preparation of the cells before flow cytometry is detailed in separate examples. Cell suspensions of cell lines A375, BxPC-3, MEC-1 or of primary lymphocytes (see separate example of lymphocyte preparation) are analyzed by flow cytometry. The data are further analyzed by using the program “Flowing Software 2”. The data of light scattering are drawn in a two-dimensional FSC/SSC plot. […]

A375 melanoma cells = experiment: cell vitality FACS analysis (region R-1, FSC/SSC), A375 melanoma cells; format: cell-based, human; settings: A375, Protocol A, about 24 hours, FIG. 7
Description: as §1
For suspension cells (MEC-1 and lymphocytes/PBMC) and for adherent cells analyzed according to Protocol A, FACS analysis to determine subG1 cell cycle and vital cell fractions was done on a Becton Dickinson LSR Fortessa flow cytometer. The analysis by FACS including subG1 and vital cell analysis according to protocol B was performed with a Cytomics FC 500 MPL flow cytometer from Beckman Coulter.
Changes of the cell form during cell death by apoptosis are documented in the literature (Lizard et al. 1995; Taga et al. 2000; Vermes et al., 2000). The protocols for cell cultivation, treatment and preparation of the cells before flow cytometry is detailed in separate examples. Cell suspensions of cell lines A375, BxPC-3, MEC-1 or of primary lymphocytes (see separate example of lymphocyte preparation) are analyzed by flow cytometry. The data are further analyzed by using the program “Flowing Software 2”. The data of light scattering are drawn in a two-dimensional FSC/SSC plot. Since the position in the FSC/SSC plot of apoptotic cells changes relative to non-apoptotic cells (Vermes et al., 2000), a region (R-1) is drawn representing mainly non-apoptotic cells and excluding cells with both low FSC and low SSC values and excluding cells with high values of FSC and/or SSC (FIG. 1). The regions are individually selected for each cell type (A375, BxPC-3, MEC-1 and primary lymphocytes). The percentage of untreated non-apoptotic cells in the region R-1 relative to total cells is set to 100%, representing 100% vital cells. The fraction (%) of cells in R-1 relative to the total number of cells in case of cell treatment by certain peptides or by cytotoxic drugs results in cell vitality, below 100%, thereby indicating a loss of cell vitality by the treatment. […]

CSCC[C@@H](NC(=O)[C@@H](Cc1c[nH]c2ccccc12)NC(=O)[C@@H](CCCCN)NC(=O)[C@H](N)CCCCN)C(=O)N[C@@H](C(=O)N[C@@H](C(=O)N[C@H](Cc1ccc(O)cc1)C(=O)N[C@H](Cc1ccccc1)C(=O)N[C@H](CCCNC(=N)N)C(=O)O)C(C)C)C(C)C [SEQID No 25, k-k-w-m-v-v-y-f-r] (H-[dK][dK][dW][dM][dV][dV][dY][dF][dR]-OH; N-terminus and C-terminus assumed) was tested, and the “tolerance by healthy Lymphocyte (PBMC) cells (cell vitality)” value (shortened to “tolerance by healthy Lymphocyte”) [1] was “not so well tolerated by the healthy cells”.
In the case of CSCC[C@@H](NC(=O)[C@@H](Cc1c[nH]c2ccccc12)NC(=O)[C@H](N)CCCCN)C(=O)N[C@@H](C(=O)N[C@@H](C(=O)N[C@H](Cc1ccc(O)cc1)C(=O)N[C@H](Cc1ccccc1)C(=O)N[C@H](CCCNC(=N)N)C(=O)N[C@H](CCCCN)C(=O)O)C(C)C)C(C)C [SEQID No 26, k-w-m-v-v-y-f-r-k] (H-[dK][dW][dM][dV][dV][dY][dF][dR][dK]-OH; N-terminus and C-terminus assumed), the “tolerance by healthy Lymphocyte” value [1] is reported as “not so well tolerated by the healthy cells”.
In the case of CSCC[C@@H](NC(=O)[C@@H](Cc1c[nH]c2ccccc12)NC(=O)[C@@H](CCCCN)NC(=O)[C@H](N)CCCCN)C(=O)N[C@@H](C(=O)N[C@@H](C(=O)N[C@H](Cc1ccc(O)cc1)C(=O)N[C@H](Cc1ccccc1)C(=O)N[C@H](CCCNC(=N)N)C(=O)N[C@H](CCCCN)C(=O)O)C(C)C)C(C)C [SEQID No 27, k-k-w-m-v-v-y-f-r-k] (H-[dK][dK][dW][dM][dV][dV][dY][dF][dR][dK]-OH; N-terminus and C-terminus assumed), the “tolerance by healthy Lymphocyte” value [1] is reported as “not remarkably damaged; also recorded: very good tolerated by the healthy cells (low toxic effect)”.
CSCC[C@@H](NC(=O)[C@@H](Cc1c[nH]c2ccccc12)NC(=O)[C@@H](CCCCN)NC(=O)[C@H](N)CCCCN)C(=O)N[C@@H](C(=O)N[C@@H](C(=O)N[C@H](Cc1ccc(O)cc1)C(=O)N[C@H](Cc1ccccc1)C(=O)N[C@H](CCCNC(=N)N)C(=O)N[C@H](CCCCN)C(=O)N[C@H](CO)C(=O)N[C@H](CO)C(=O)N[C@H](CCCNC(=N)N)C(=O)O)C(C)C)C(C)C [SEQID No 30, k-k-w-m-v-v-y-f-r-k-s-s-r] (H-[dK][dK][dW][dM][dV][dV][dY][dF][dR][dK][dS][dS][dR]-OH; N-terminus and C-terminus assumed) was tested, and the “tolerance by healthy Lymphocyte” value [1] was “well tolerated” and the “tolerance by healthy Lymphocyte” value ([1]; listed as SEQID NO 30) was “not remarkably damaged”.
With CSCC[C@@H](NC(=O)[C@@H](Cc1c[nH]c2ccccc12)NC(=O)[C@@H](CCCCN)NC(=O)[C@@H](CCCCN)NC(=O)[C@@H](CO)NC(=O)[C@@H](CCCNC(=N)N)NC(=O)[C@H](N)CCC(=O)O)C(=O)N[C@@H](C(=O)N[C@@H](C(=O)N[C@H](Cc1ccc(O)cc1)C(=O)N[C@H](Cc1ccccc1)C(=O)N[C@H](CCCNC(=N)N)C(=O)N[C@H](CCCCN)C(=O)O)C(C)C)C(C)C [SEQID No 31, e-r-s-k-k-w-m-v-v-y-f-r-k] (H-[dE][dR][dS][dK][dK][dW][dM][dV][dV][dY][dF][dR][dK]-OH; N-terminus and C-terminus assumed) the “tolerance by healthy Lymphocyte” value [1] was “not remarkably damaged”.
In the case of CSCC[C@@H](NC(=O)[C@@H](Cc1c[nH]c2ccccc12)NC(=O)[C@@H](CCCCN)NC(=O)[C@H](N)CCCCN)C(=O)N[C@@H](C(=O)N[C@@H](C(=O)N[C@H](Cc1ccc(O)cc1)C(=O)N[C@H](Cc1ccccc1)C(=O)N[C@H](CCCNC(=N)N)C(=O)N[C@H](CCCCN)C(=O)N[C@H](CCC(=O)O)C(=O)N[C@H](C)C(=O)N[C@H](CCCNC(=N)N)C(=O)O)C(C)C)C(C)C [SEQID No 32, k-k-w-m-v-v-y-f-r-k-e-a-r] (H-[dK][dK][dW][dM][dV][dV][dY][dF][dR][dK][dE][dA][dR]-OH; N-terminus and C-terminus assumed), the “tolerance by healthy Lymphocyte” value [1] is reported as “not remarkably damaged”.
For CSCC[C@@H](NC(=O)[C@@H](Cc1c[nH]c2ccccc12)NC(=O)[C@@H](CCCCN)NC(=O)[C@@H](CCCCN)NC(=O)[C@H](NC(=O)[C@@H](CO)NC(=O)[C@H](N)CCCNC(=N)N)[C@H](C)O)C(=O)N[C@@H](C(=O)N[C@@H](C(=O)N[C@H](Cc1ccc(O)cc1)C(=O)N[C@H](Cc1ccccc1)C(=O)N[C@H](CCCNC(=N)N)C(=O)N[C@H](CCCCN)C(=O)O)C(C)C)C(C)C [SEQID No 33, r-s-t-k-k-w-m-v-v-y-f-r-k] (H-[dR][dS][dT][dK][dK][dW][dM][dV][dV][dY][dF][dR][dK]-OH; N-terminus and C-terminus assumed), the “tolerance by healthy Lymphocyte” value [1] was “not remarkably damaged; also recorded: well tolerated”.
In the case of d-k-w-m-v-v-y-f-r-d [SEQID No 39], the “decrease of cell vitality, comparison in words” value (A375 melanoma cells; 100 μM) is reported as “higher apoptosis rate at a concentration of 100 μM as peptide SEQID NO 27” and the “decrease of cell vitality, comparison in words” value (A375 melanoma cells; any concentration (100, 200, 500 μM)) is reported as “significantly greater decrease than the peptide of the prior art (Peptide SEQ C1)”.
